In PMC7274485, “A symbiotic bacterium of shipworms produces a compound with broad spectrum anti-apicomplexan activity” (PLoS Pathogens, 2020):
“Also recorded” adds a separate entry of the source.

Assays:
T. gondii = experiment: Intracellular T. gondii growth inhibition, luciferase expression in HFF cells; assay type: cell-based; conditions: Toxoplasma gondii; luciferase expressing RH or ME49 strain in HFF cells; trtE added 24 hours post-infection, read 24 hours later; purification method 1 or 2; read-out: EC50 against intracellular T. gondii
Method: To obtain sufficient trtE for in vitro and in vivo experiments, bacterial growth conditions were optimized, and a modified purification method was developed and validated by ESI-HRMS, LC/MS/MS and NMR (purification method 2; see methods and S8–S9 Figs). To determine the effective concentration at which trtE inhibited the growth of 50% of T. gondii parasites (EC50), HFF cells were seeded into 96 well plates and infected with luciferase expressing T. gondii tachyzoites. 24 hours post-infection two-fold serial dilutions of trtE, purified by method 1 or method 2, or DMSO vehicle control were added to the infected cells. 24 hours later, the infected cells were lysed and parasite growth quantified by luciferase expression. The EC50 of trtE against intracellular T. gondii was determined to be 3 nM regardless of purification method.
T. gondii parasite lines were maintained by passage in HFFs as previously described. […] Growth was monitored by luciferase expression using Bright-glo Luciferase assay system (Promega Corp., Madison, WI). […] Infected cells were then incubated for 72 hours before growth was quantified by luciferase expression. […]

C. parvum = experiment: Immunofluorescence assay (anti-gp15) of C. parvum-infected HCT8 cells; assay type: cell-based, Cryptosporidium parvum; conditions: 60 nM trtE, 12 hours, HCT8 cells infected 8 hours
Method: We had postulated that secondary metabolites generated by symbiotic bacteria of invertebrates might include compounds that target gregarines, an ancient group of apicomplexans found in most, and perhaps all, invertebrates. The only gregarines known to infect mammals are Cryptosporidium species, gastrointestinal parasites that cause diarrheal disease in humans and other mammals. HCT8 cells were infected with luciferase-expressing Cryptosporidium parvum parasites for 24 hours, then two-fold dilutions of trtE added to the infected cells. 48 hours after the addition of trtE, parasite growth was quantified by luciferase expression. […]
For all IFAs, the investigator reading the slides and collecting images was blind to the sample treatment. […] 24 hours post treatment, infected cells were fixed with methanol, and parasites detected with rabbit anti-SAG1 antibody for T. gondii or rabbit anti-gp15 for C. parvum as we have described previously. […] This CE11 line is transiently transfected with a plasmid that expresses nanoluciferase from a B. divergens promoter and green fluorescence protein-blasticidin (gfp-bsd) from the selection cassette. […] Mean background levels were determined for individual images by assaying areas lacking cells, and the values were subtracted, whereas maximum fluorescent values were individually set as the upper limit. […]

[1] = system: HCT-8 colonic cancer cells
Method: (§1) Toxicity was evaluated by measuring cellular ATP concentrations.
(§2) HCT8, HFF and BT cells were seeded in 96-well plates to achieve 20–30% confluence after 24 hours of growth.

Gram negative bacteria = conditions: at μM concentrations; cited from earlier work
[2] = system: Human Foreskin fibroblasts; experiment: Cytotoxicity for host cells, cellular ATP (CellTiter-Glo): HFF
Method: as §1, §2

[3] = 20–30% confluency, 24 hours, cellular ATP

CC1CCC=CC=CCCC(O)CC(=O)CC2CCC(C)C3(O2)O[B-]24OC(C(=O)O1)C1(OC(CCC1C)CC(=O)CC(O)CCC=CC=CCCC(C)OC(=O)C3O2)O4 (stereo not shown) [trtE, tartrolon E]
EC50 (T. gondii): 0.003 µM | Morphology of trtE treated C. parvum (IFA) (C. parvum): no visible intact merozoites; also recorded: few discernable parasites | TC50 (median toxic concentration) for HCT-8 [1, 3]: 6.3 µM | Selectivity Index, C. parvum vs HCT-8 ([1]; TC50/EC50): 1636 | Activity of trtE against Gram negative bacteria (Gram negative bacteria): active | TC50 (median toxic concentration) for HFF [2, 3]: 7.9 µM | Selectivity Index, T. gondii vs Human Foreskin fibroblasts ([2]; TC50/EC50): 2633
